Reference: patent US10221156B2, “Pyridin-3-yl acetic acid derivatives as inhibitors of human immunodeficiency virus replication” (ViiV HEALTHCARE UK (No. 5) LIMITED, priority 2015, dated 2019)
Read-outs that look alike come from different tables or passages of the source.

Test system: recombinant NL-RLuc virus (HIV NL4-3 with Renilla Luciferase) in MT-2 cells
Experiment: Inhibition of HIV replication (NL-RLuc virus in MT-2 cells, luciferase readout)
Type: cell-based
Excerpt: Inhibition of HIV Replication:
A recombinant NL-RLuc proviral clone was constructed in which a section of the nef gene from NL4-3 was replaced with the Renilla Luciferase gene. This virus is fully infectious and can undergo multiple cycles of replication in cell culture. In addition, the luciferous reporter provides a simple and easy method for quantitating the extent of virus growth and consequently, the antiviral activity of test compounds. The plasmid pNLRLuc contains the proviral NL-Rluc DNA cloned into pUC18 at the PvuII site. The NL-RLuc virus was prepared by transfection of 293T cells with the plasmid pNLRLuc. Transfections were performed using the LipofectAMINE PLUS kit from Invitrogen (Carlsbad, Calif.) according to the manufacturer and the virus generated was titered in MT-2 cells. For susceptibility analyses, the titrated virus was used to infect MT-2 cells in the presence of compound, and after 5 days of incubation, cells were processed and quantitated for virus growth by the amount of expressed luciferase. Assay media was RPMI 1640 supplemented with 10% heat inactivated fetal bovine serum (FBS), 100 units/ml penicillin G/100 units/ml streptomycin, 10 mM HEPES buffer pH 7.55 and 2 mM L-glutamine. The results from at least 2 experiments were used to calculate the EC50 values. Luciferase was quantitated using the Dual Luciferase kit from Promega (Madison, Wis.). Susceptibility of viruses to compounds was determined by incubation in the presence of serial dilutions of the compound. The 50% effective concentration (EC50) was calculated by using the exponential form of the median effect equation where (Fa)=1/[1+(ED50/drug conc.)^m] (Johnson V A, Byington R T. Infectivity Assay. In Techniques in HIV Research. ed. Aldovini A, Walker B D. 71-76. New York: Stockton Press. 1990). Activity equal to A refers to a compound having an EC50≤100 nM, while B and C denote compounds having an EC50 between 100 nM and 1 uM (B) or >1 uM (C).

| SMILES | EC50 (MT2, 120 h, read-out: Activity) [µM] | EC50 (MT2, 120 h, read-out: EC50 μM) [µM] | EC50 ({}) [µM] |
| --- | --- | --- | --- |
| Cc1nc(C)c([C@H](OC(C)(C)C)C(=O)O)c(N2CCC(C)(C)CC2)c1-c1ccc(OCCN2CCN(C)CC2)cc1 [Example 1, (S)-2-(tert-Butoxy)-2-(4-(4,4-dimethylpiperidin-1-yl)-2,6-dimethyl-5-(4-(2-(4-methylpiperazin-1-yl)ethoxy)phenyl)pyridin-3-yl)acetic Acid] | 0.1 to 1 | 0.117 | – |
| Cc1nc(C)c([C@H](OC(C)(C)C)C(=O)O)c(N2CCC(C)(C)CC2)c1-c1ccc(OCCC2CCCCC2)cc1 [Example 2, (S)-2-(tert-Butoxy)-2-(5-(4-(2-cyclohexylethoxy)phenyl)-4-(4,4-dimethylpiperidin-1-yl)-2,6-dimethylpyridin-3-yl)acetic Acid] | < 0.1 | 0.034 | – |
| Cc1nc(C)c([C@H](OC(C)(C)C)C(=O)O)c(N2CCC(C)(C)CC2)c1-c1ccc(OC2CCOc3ccccc32)cc1 (stereo partly drawn) [Example 3, (2S)-2-(tert-Butoxy)-2-(5-(4-(chroman-4-yloxy)phenyl)-4-(4,4-dimethylpiperidin-1-yl)-2,6-dimethylpyridin-3-yl)acetic Acid] | < 0.1 | – | – |
| Cc1nc(C)c([C@H](OC(C)(C)C)C(=O)O)c(N2CCC(C)(C)CC2)c1-c1ccc(OCCN2CCCCC2)cc1 [Example 4, (S)-2-(tert-Butoxy)-2-(4-(4,4-dimethylpiperidin-1-yl)-2,6-dimethyl-5-(4-(2-(piperidin-1-yl)ethoxy)phenyl)pyridin-3-yl)acetic Acid] | < 0.1 | – | – |
| Cc1nc(C)c([C@H](OC(C)(C)C)C(=O)O)c(N2CCC(C)(C)CC2)c1-c1ccc(OCCN2CCOCC2)cc1 [Example 5, (S)-2-(tert-Butoxy)-2-(4-(4,4-dimethylpiperidin-1-yl)-2,6-dimethyl-5-(4-(2-morpholinoethoxy)phenyl)pyridin-3-yl)acetic Acid] | < 0.1 | 0.021 | – |
| COc1cccc(C2CCN(CCOc3ccc(-c4c(C)nc(C)c([C@H](OC(C)(C)C)C(=O)O)c4N4CCC(C)(C)CC4)cc3)CC2)c1 [Example 6, (S)-2-(tert-Butoxy)-2-(4-(4,4-dimethylpiperidin-1-yl)-5-(4-(2-(4-(3-methoxyphenyl)piperidin-1-yl)ethoxy)phenyl)-2,6-dimethylpyridin-3-yl)acetic Acid] | < 0.1 | – | – |
| Cc1nc(C)c([C@H](OC(C)(C)C)C(=O)O)c(N2CCC(C)(C)CC2)c1-c1ccc(OCCN2CCC(C)CC2)cc1 [Example 7, (S)-2-(tert-Butoxy)-2-(4-(4,4-dimethylpiperidin-1-yl)-2,6-dimethyl-5-(4-(2-(4-methylpiperidin-1-yl)ethoxy)phenyl)pyridin-3-yl)acetic Acid] | < 0.1 | – | – |
| Cc1nc(C)c([C@H](OC(C)(C)C)C(=O)O)c(N2CCC(C)(C)CC2)c1-c1ccc(OCC2CCC(C)CC2)cc1 (stereo partly drawn) [Example 8, (S)-2-(tert-Butoxy)-2-(4-(4,4-dimethylpiperidin-1-yl)-2,6-dimethyl-5-(4-((4-methylcyclohexyl)methoxy)phenyl)pyridin-3-yl)acetic Acid] | < 0.1 | – | – |
| Cc1nc(C)c([C@H](OC(C)(C)C)C(=O)O)c(N2CCC(C)(C)CC2)c1-c1ccc(OCC2CCC(C)CC2)cc1 (stereo partly drawn) [Example 9, (S)-2-(tert-Butoxy)-2-(4-(4,4-dimethylpiperidin-1-yl)-2,6-dimethyl-5-(4-((4-methylcyclohexyl)methoxy)phenyl)pyridin-3-yl)acetic Acid] | – | – | < 0.1 |
| Cc1nc(C)c([C@H](OC(C)(C)C)C(=O)O)c(N2CCC(C)(C)CC2)c1-c1ccc(OCCN2CCN(Cc3ccc(F)cc3)CC2)cc1 [Example 10, (S)-2-(tert-Butoxy)-2-(4-(4,4-dimethylpiperidin-1-yl)-5-(4-(2-(4-(4-fluorobenzyl)piperazin-1-yl)ethoxy)phenyl)-2,6-dimethylpyridin-3-yl)acetic Acid] | < 0.1 | – | – |
| Cc1nc(C)c([C@H](OC(C)(C)C)C(=O)O)c(N2CCC(C)(C)CC2)c1-c1ccc(OCC2(c3ccc(F)cc3)CC2)cc1 [Example 11] | < 0.1 | 0.003 | – |
| Cc1nc(C)c([C@H](OC(C)(C)C)C(=O)O)c(N2CCC(C)(C)CC2)c1-c1ccc(OC2Cc3ccccc3C2)cc1 [Example 12, (S)-2-(tert-Butoxy)-2-(5-(4-((2,3-dihydro-1H-inden-2-yl)oxy)phenyl)-4-(4,4-dimethylpiperidin-1-yl)-2,6-dimethylpyridin-3-yl)acetic Acid] | < 0.1 | – | – |
| Cc1nc(C)c([C@H](OC(C)(C)C)C(=O)O)c(N2CCC(C)(C)CC2)c1-c1ccc(OCCN2CCSCC2)cc1 [Example 13, (S)-2-(tert-Butoxy)-2-(4-(4,4-dimethylpiperidin-1-yl)-2,6-dimethyl-5-(4-(2-thiomorpholinoethoxy)phenyl)pyridin-3-yl)acetic Acid] | < 0.1 | 0.003 | – |
| Cc1nc(C)c([C@H](OC(C)(C)C)C(=O)O)c(N2CCC(C)(C)CC2)c1-c1ccc(OCCN2CCS(=O)(=O)CC2)cc1 [Example 14, (S)-2-(tert-Butoxy)-2-(4-(4,4-dimethylpiperidin-1-yl)-5-(4-(2-(1,1-dioxidothiomorpholino)ethoxy)phenyl)-2,6-dimethylpyridin-3-yl)acetic Acid] | < 0.1 | – | – |
| Cc1nc(C)c([C@H](OC(C)(C)C)C(=O)O)c(N2CCC(C)(C)CC2)c1-c1ccc(OC2CC(c3ccc(F)cc3)C2)cc1 (stereo partly drawn) [Example 15, (S)-2-(tert-Butoxy)-2-(4-(4,4-dimethylpiperidin-1-yl)-5-(4-(3-(4-fluorophenyl)cyclobutoxy)phenyl)-2,6-dimethylpyridin-3-yl)acetic Acid] | < 0.1 | – | – |
| Cc1nc(C)c([C@H](OC(C)(C)C)C(=O)O)c(N2CCC(C)(C)CC2)c1-c1ccc(OC2CCC(c3ccc(F)cc3)CC2)cc1 (stereo partly drawn) [Example 16, (S)-2-(tert-Butoxy)-2-(4-(4,4-dimethylpiperidin-1-yl)-5-(4-((4-(4-fluorophenyl)cyclohexyl)oxy)phenyl)-2,6-dimethylpyridin-3-yl)acetic Acid] | < 0.1 | – | – |
| Cc1nc(C)c([C@H](OC(C)(C)C)C(=O)O)c(N2CCC(C)(C)CC2)c1-c1ccc(OC2CCCC2c2ccc(F)cc2)cc1 (stereo partly drawn) [Example 17, (2S)-2-(tert-Butoxy)-2-(4-(4,4-dimethylpiperidin-1-yl)-5-(4-((2-(4-fluorophenyl)cyclopentyl)oxy)phenyl)-2,6-dimethylpyridin-3-yl)acetic acid] | < 0.1 | 0.012 | – |
| Cc1nc(C)c([C@H](OC(C)(C)C)C(=O)O)c(N2CCC(C)(C)CC2)c1-c1ccc(OC2CCCC2c2ccc(F)cc2)cc1 (stereo partly drawn) [Example 18, (2S)-2-(tert-Butoxy)-2-(4-(4,4-dimethylpiperidin-1-yl)-5-(4-((2-(4-fluorophenyl)cyclopentyl)oxy)phenyl)-2,6-dimethylpyridin-3-yl)acetic acid] | – | – | < 0.1 |
| Cc1nc(C)c([C@H](OC(C)(C)C)C(=O)O)c(N2CCC(C)(C)CC2)c1-c1ccc(OC2COCC2c2ccc(F)cc2)cc1 (stereo partly drawn) [Example 19, (2S)-2-(tert-Butoxy)-2-(4-(4,4-dimethylpiperidin-1-yl)-5-(4-((4-(4-fluorophenyl)tetrahydrofuran-3-yl)oxy)phenyl)-2,6-dimethylpyridin-3-yl)acetic acid] | < 0.1 | – | – |
| Cc1nc(C)c([C@H](OC(C)(C)C)C(=O)O)c(N2CCC(C)(C)CC2)c1-c1ccc(OC2COCC2c2ccc(F)cc2)cc1 (stereo partly drawn) [Example 20, (2S)-2-(tert-Butoxy)-2-(4-(4,4-dimethylpiperidin-1-yl)-5-(4-((4-(4-fluorophenyl)tetrahydrofuran-3-yl)oxy)phenyl)-2,6-dimethylpyridin-3-yl)acetic acid] | – | – | < 0.1 |
